Reference: US5169984A, “Synthesis and characterization of N-bromoacetyl-3,3'5-triiodo-L-thyronine using high speed countercurrent chromatography” (The United States of America as represented by the …, priority 1990, dated 1992)

Details: crude, prior to HSCCC; ethyl acetate, well-sealed container, -20° C., over four months
Experimental: Chromatograms were monitored by radioactivity. In FIG. 2A the sample was freshly prepared while in FIG. 2B the sample was stored for 4.2 months in ethyl acetate at -20° C. […] Other conditions were the same as in FIGS. 1A and 1B.

decomposition on storage: partial decomposition
Compound: O=C(CBr)N[C@@H](Cc1cc(I)c(Oc2ccc(O)c(I)c2)c(I)c1)C(=O)O [BrAc[^125 I]T3, ^125 I-labeled N-bromoacetyl-3,3',5-triiodo-L-thyronine]
